The values that follow are results of earlier work, collected in patent US20180311274A1, “IN SITU NEUTRALIZATION COMPOSITION” (Kramer Laboratories, Inc., priority 2017, published 2018).

On to `Cc1cccc(N(C)C(=S)Oc2ccc3ccccc3c2)c1` [Tolnaftate], for which the solubility in water result was “practically insoluble”.
